From PubChem BioAssay (NCI)
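Values below derive from 48-hour exposures of cells grown in 96-well plates, with endpoints linearly interpolated between the two concentrations bracketing the appropriate inhibition level. TGI: total growth inhibition.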

Experiments:
Test in all cases: NCI tumour cell line growth inhibition, 48 h
[1] = test system: A498 renal
[2] = test system: A549 NSCLC
[3] = test system: CAKI-1 renal
[4] = test system: CCRF-CEM leukemia
[5] = test system: COLO 205 colon
[6] = test system: DLD-1 colon
[7] = test system: DMS 273 small cell lung
[8] = test system: EKVX NSCLC
[9] = test system: HCC-2998 colon
[10] = test system: HCT-116 colon
[11] = test system: HCT-15 colon
[12] = test system: HL-60(TB) leukemia
[13] = test system: HOP-18 NSCLC
[14] = test system: HOP-62 NSCLC
[15] = test system: HOP-92 NSCLC
[16] = test system: HT29 colon
[17] = test system: IGROV1 ovarian
[18] = test system: K-562 leukemia
[19] = test system: KM12 colon
[20] = test system: KM20L2 colon
[21] = test system: LOX IMVI melanoma
[22] = test system: M19-MEL melanoma
[23] = test system: MALME-3M melanoma
[24] = test system: MCF7 breast
[25] = test system: MOLT-4 leukemia
[26] = test system: NCI-H226 lung
[27] = test system: NCI-H23 lung
[28] = test system: NCI-H460 lung
[29] = test system: NCI-H522 lung
[30] = test system: NCI/ADR-RES ovarian
[31] = test system: OVCAR-3 ovarian
[32] = test system: OVCAR-4 ovarian
[33] = test system: OVCAR-5 ovarian
[34] = test system: OVCAR-8 ovarian
[35] = test system: P388 leukemia
[36] = test system: P388/ADR leukemia
[37] = test system: RPMI-8226 leukemia
[38] = test system: RXF 393 renal
[39] = test system: SF-268 CNS
[40] = test system: SF-295 CNS
[41] = test system: SF-539 CNS
[42] = test system: SK-MEL-2 melanoma
[43] = test system: SK-MEL-28 melanoma
[44] = test system: SK-MEL-5 melanoma
[45] = test system: SK-OV-3 ovarian
[46] = test system: SN12C renal
[47] = test system: SN12K1 renal
[48] = test system: SNB-19 CNS
[49] = test system: SNB-75 CNS
[50] = test system: SNB-78 CNS
[51] = test system: SW-620 colon
[52] = test system: U251 CNS
[53] = test system: UACC-257 melanoma
[54] = test system: UACC-62 melanoma
[55] = test system: UO-31 renal
[56] = test system: XF 498 CNS
[57] = test system: 786-0 renal
[58] = test system: ACHN renal
[59] = test system: DMS 114 small cell lung
[60] = test system: LXFL 529 NSCLC
[61] = test system: M14 melanoma
[62] = test system: RXF-631 renal
[63] = test system: SR leukemia
[64] = test system: TK-10 renal

## Cc1ccc(N2Cc3c(ccc4ccccc34)OP2(=S)N2CCCC2)cc1 (stereo not given)
[1]
  TGI: > 100 µM
[2]
  TGI: > 100 µM
[3]
  TGI: > 100 µM
[4]
  TGI: > 100 µM
[5]
  TGI: > 100 µM
[6]
  TGI: > 100 µM
[7]
  TGI: > 100 µM
[8]
  TGI: > 100 µM
[9]
  TGI: > 100 µM
[10]
  TGI: > 100 µM
[11]
  TGI: > 100 µM
[12]
  TGI: > 100 µM
[13]
  TGI: > 100 µM
[14]
  TGI: > 100 µM
[15]
  TGI: > 100 µM
[16]
  TGI: > 100 µM
[17]
  TGI: > 100 µM
[18]
  TGI: > 100 µM
[19]
  TGI: > 100 µM
[20]
  TGI: > 100 µM
[21]
  TGI: > 100 µM
[22]
  TGI: > 100 µM
[23]
  TGI: > 100 µM
[24]
  TGI: > 100 µM
[25]
  TGI: > 100 µM
[26]
  TGI: > 100 µM
[27]
  TGI: > 100 µM
[28]
  TGI: > 100 µM
[29]
  TGI: > 100 µM
[30]
  TGI: > 100 µM
[31]
  TGI: > 55.7 µM
[32]
  TGI: > 100 µM
[33]
  TGI: > 100 µM
[34]
  TGI: > 100 µM
[35]
  TGI: 47.9 µM
[36]
  TGI: > 100 µM
[37]
  TGI: > 100 µM
[38]
  TGI: > 100 µM
[39]
  TGI: > 100 µM
[40]
  TGI: > 100 µM
[41]
  TGI: > 100 µM
[42]
  TGI: > 100 µM
[43]
  TGI: > 100 µM
[44]
  TGI: > 100 µM
[45]
  TGI: > 100 µM
[46]
  TGI: > 100 µM
[47]
  TGI: > 100 µM
[48]
  TGI: > 100 µM
[49]
  TGI: > 100 µM
[50]
  TGI: > 100 µM
[51]
  TGI: > 100 µM
[52]
  TGI: > 100 µM
[53]
  TGI: > 100 µM
[54]
  TGI: > 100 µM
[55]
  TGI: > 100 µM
[56]
  TGI: > 100 µM

## COC(OC)c1cccnc1C
[57]
  TGI: > 100 µM
[2]
  TGI: > 100 µM
[58]
  TGI: > 100 µM
[3]
  TGI: > 100 µM
[4]
  TGI: > 100 µM
[5]
  TGI: > 100 µM
[6]
  TGI: > 100 µM
[59]
  TGI: > 100 µM
[7]
  TGI: > 100 µM
[8]
  TGI: > 100 µM
[10]
  TGI: > 100 µM
[11]
  TGI: > 100 µM
[12]
  TGI: > 100 µM
[13]
  TGI: > 100 µM
[14]
  TGI: > 100 µM
[15]
  TGI: > 100 µM
[16]
  TGI: > 100 µM
[17]
  TGI: > 100 µM
[18]
  TGI: > 100 µM
[19]
  TGI: > 100 µM
[20]
  TGI: > 100 µM
[21]
  TGI: > 100 µM
[60]
  TGI: > 100 µM
[61]
  TGI: > 100 µM
[22]
  TGI: > 100 µM
[23]
  TGI: > 100 µM
[25]
  TGI: > 100 µM
[27]
  TGI: > 100 µM
[28]
  TGI: > 100 µM
[29]
  TGI: > 100 µM
[31]
  TGI: > 100 µM
[32]
  TGI: > 100 µM
[33]
  TGI: > 100 µM
[34]
  TGI: > 100 µM
[38]
  TGI: > 100 µM
[62]
  TGI: > 100 µM
[39]
  TGI: > 100 µM
[40]
  TGI: > 100 µM
[41]
  TGI: > 100 µM
[42]
  TGI: > 100 µM
[43]
  TGI: > 100 µM
[44]
  TGI: > 100 µM
[45]
  TGI: > 100 µM
[46]
  TGI: > 100 µM
[48]
  TGI: > 100 µM
[49]
  TGI: > 100 µM
[50]
  TGI: > 100 µM
[63]
  TGI: > 100 µM
[51]
  TGI: > 100 µM
[64]
  TGI: > 100 µM
[52]
  TGI: > 100 µM
[53]
  TGI: > 100 µM
[54]
  TGI: > 100 µM
[55]
  TGI: > 100 µM
[56]
  TGI: > 100 µM

## Nc1ccc(C(=O)N/C(=C\c2ccc3c(c2)OCO3)c2nc3ccccc3s2)cc1
[57]
  TGI: 23.7 µM
[2]
  TGI: 31 µM
[58]
  TGI: 27.2 µM
[3]
  TGI: 29.7 µM
[4]
  TGI: 7.28 µM
[5]
  TGI: 34.9 µM
[6]
  TGI: 59.7 µM
[7]
  TGI: 34.2 µM
[8]
  TGI: 25.9 µM
[9]
  TGI: 27.9 µM
[11]
  TGI: 23.4 µM
[15]
  TGI: 24.7 µM
[16]
  TGI: 25.8 µM
[17]
  TGI: 31.7 µM
[18]
  TGI: 38 µM
[19]
  TGI: 28 µM
[20]
  TGI: 28.7 µM
[60]
  TGI: 22.4 µM
[61]
  TGI: 23.9 µM
[22]
  TGI: 32.6 µM
[29]
  TGI: 28.5 µM
[31]
  TGI: 30.8 µM
[32]
  TGI: 25.1 µM
[33]
  TGI: 36.5 µM
[34]
  TGI: 28.9 µM
[38]
  TGI: 27.9 µM
[62]
  TGI: 35.1 µM
[39]
  TGI: 24.2 µM
[40]
  TGI: 30.3 µM
[41]
  TGI: 31.4 µM
[42]
  TGI: 28 µM
[43]
  TGI: 25.9 µM
[44]
  TGI: 29.2 µM
[45]
  TGI: 36.2 µM
[46]
  TGI: 25.6 µM
[48]
  TGI: 28.7 µM
[50]
  TGI: 30.5 µM
[63]
  TGI: 53.4 µM
[51]
  TGI: 23.6 µM
[64]
  TGI: 34 µM
[52]
  TGI: 26.4 µM
[54]
  TGI: 33.2 µM
[55]
  TGI: 29 µM
[56]
  TGI: 25.5 µM
